The text below walks through data of PubChem BioAssay (NCI).

“And” between values parts separate entries of the source, which are not always exact repeats. Identical values can stand only once.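 Assay format: 96-well plates, 48-hour exposure. GI50: concentration for 50% inhibition of growth. TGI denotes the concentration required for complete inhibition of growth.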

Test systems include A549 NSCLC; U251 CNS; DMS 273 small cell lung; HOP-92 NSCLC; KM20L2 colon; MALME-3M melanoma; MOLT-4 leukemia; NCI-H226 lung; XF 498 CNS; M19-MEL melanoma; RPMI-8226 leukemia; MDA-N.
Assay in all cases: inhibition of tumour cell growth, NCI panel, 48 h

Turning to `COC(=O)C(C/C=C(\C)c1ccc(Cl)cc1)C(C)=O` (stereo not given), the TGI with A549 NSCLC was above 90.6 µM; in the assay with U251 CNS it was above 86.6 µM; in the assay with DMS 273 small cell lung, above 72 µM; with HOP-92 NSCLC it was 64.2 µM; with KM20L2 colon, above 100 µM; in the assay with MALME-3M melanoma, above 100 µM. Moreover, the TGI was 41.2 µM in the assay with MOLT-4 leukemia; above 91 µM with NCI-H226 lung; above 100 µM with XF 498 CNS; above 92.5 µM in the assay with M19-MEL melanoma; above 69 µM in the assay on RPMI-8226 leukemia.
Turning to `Cc1c2ccncc2c(C)c2c1[nH]c1ccc(OCC(F)(F)F)cc12`, the TGI came out at 3.3 µM in the assay with A549 NSCLC; 2.98 µM with U251 CNS; 2.17 µM in the assay on DMS 273 small cell lung; 2.78 µM in the assay on KM20L2 colon; 3.23 µM with MALME-3M melanoma; 3.26 µM in the assay with MOLT-4 leukemia. In addition, the TGI was found to be 3.24 µM with NCI-H226 lung, 3.07 µM in the assay with XF 498 CNS, 3.49 µM in the assay with M19-MEL melanoma and 5.32 µM with RPMI-8226 leukemia.
As to `COC1(O)c2cccc(Cl)c2C(=O)N1C1(C(N)=O)CCCCC1` (stereo not given), the TGI with A549 NSCLC was above 100 µM; with U251 CNS, above 100 µM; with DMS 273 small cell lung, above 100 µM; in the assay on HOP-92 NSCLC, 40.7 µM; with KM20L2 colon, above 100 µM; in the assay on MALME-3M melanoma it was above 100 µM. In addition, the TGI with MOLT-4 leukemia, with NCI-H226 lung, in the assay on XF 498 CNS, in the assay with M19-MEL melanoma and in the assay on RPMI-8226 leukemia was above 100 µM throughout.
`CSc1nc2c(ncn2C2OCC(O)C(O)C2O)c(=O)n1C` (stereo not given): the TGI in the assay on A549 NSCLC, in the assay with U251 CNS, in the assay with DMS 273 small cell lung, with HOP-92 NSCLC, in the assay with KM20L2 colon and in the assay on MALME-3M melanoma was above 100 µM throughout. In addition, the TGI in the assay with MOLT-4 leukemia, in the assay with NCI-H226 lung, in the assay on XF 498 CNS, in the assay on M19-MEL melanoma and in the assay with RPMI-8226 leukemia was above 100 µM each time.
For `NN1C(=O)C(CCO)S/C1=N/N=C1/SC(CCO)C(=O)N1N` (stereo not given), the TGI in the assay on A549 NSCLC, in the assay on U251 CNS, in the assay with HOP-92 NSCLC, in the assay with KM20L2 colon, in the assay on MALME-3M melanoma and in the assay on MOLT-4 leukemia was above 100 µM throughout. For the same compound, the TGI in the assay on NCI-H226 lung, in the assay on XF 498 CNS, in the assay on M19-MEL melanoma and with RPMI-8226 leukemia was above 100 µM in each case.
In the case of `COc1cc(C2C(Cl)C(=O)N2NC(=O)c2ccc(N)cc2)cc(Br)c1O` (stereo not given), the TGI in the assay with A549 NSCLC amounted to 42.8 µM; with U251 CNS it was 10.1 µM; in the assay on DMS 273 small cell lung, 31.9 µM; with HOP-92 NSCLC, 39.8 µM; in the assay with KM20L2 colon, 33.6 µM; in the assay on MALME-3M melanoma, 27.5 µM. Also, the TGI in the assay with MOLT-4 leukemia stood at 20 µM; in the assay on NCI-H226 lung, 46.2 µM; in the assay with XF 498 CNS, 30.7 µM; in the assay on M19-MEL melanoma, 32 µM; in the assay with RPMI-8226 leukemia it was 51.5 µM.
Take `CCN(CC)CCNc1ccc2nnn3c4ccc(O)cc4c(=O)c1c23`: the TGI was determined as 13.3 µM with A549 NSCLC; 18.2 µM in the assay on U251 CNS; 18.2 µM in the assay with HOP-92 NSCLC; 17.6 µM in the assay with KM20L2 colon; 19.4 µM with MALME-3M melanoma; 4.76 µM with MOLT-4 leukemia. Moreover, the TGI in the assay on NCI-H226 lung was determined as 14.7 µM; with MDA-N, 17.5 µM; with RPMI-8226 leukemia it was 19.8 µM.
Consider `COc1ccc(C(=O)C(c2ccc(OCc3ccccc3)cc2)c2ccc(OCc3ccccc3)cc2)cc1`, for which the TGI in the assay on A549 NSCLC, in the assay with U251 CNS, in the assay on DMS 273 small cell lung, in the assay on HOP-92 NSCLC, in the assay on KM20L2 colon and in the assay with MALME-3M melanoma was above 100 µM in each case. Moreover, the TGI in the assay on MOLT-4 leukemia, with NCI-H226 lung, in the assay on XF 498 CNS, in the assay with M19-MEL melanoma and in the assay on RPMI-8226 leukemia was above 100 µM throughout.
For the compound `OCCN1CCN2C=C(C3CCCC4N(CCO)CCN34)CCC21` (stereo not given), the TGI in the assay on A549 NSCLC, in the assay on U251 CNS, in the assay with DMS 273 small cell lung, with HOP-92 NSCLC, in the assay on KM20L2 colon and in the assay on MALME-3M melanoma was above 100 µM each time. The TGI is 53.6 µM in the assay with MOLT-4 leukemia; above 100 µM in the assay with NCI-H226 lung; above 100 µM in the assay on XF 498 CNS; above 100 µM in the assay with M19-MEL melanoma; 44.9 µM in the assay with RPMI-8226 leukemia.
Regarding `Clc1ccc(-c2c(C3=NCCCN3)nnn2-c2ccccc2)cc1`, the TGI with A549 NSCLC, in the assay with U251 CNS, with DMS 273 small cell lung, in the assay with HOP-92 NSCLC, in the assay with KM20L2 colon and in the assay on MALME-3M melanoma was above 100 µM throughout. Besides, the TGI in the assay on MOLT-4 leukemia, in the assay on NCI-H226 lung, in the assay on XF 498 CNS and in the assay with M19-MEL melanoma was above 100 µM each time.
In the case of `CN1CCN(c2ccc3nc(-c4ccc5nc(-c6ccc(O)cc6)[nH]c5c4)[nH]c3c2)CC1`, the TGI in the assay with A549 NSCLC was 756 µM; with U251 CNS, 799 µM; in the assay with DMS 273 small cell lung, 158 µM; with HOP-92 NSCLC, 169 µM; in the assay on KM20L2 colon, 1160 µM; with MALME-3M melanoma it was 62.5 µM. Besides, the TGI in the assay with MOLT-4 leukemia is 482 µM; with NCI-H226 lung, 792 µM; in the assay on XF 498 CNS it was 116 µM; in the assay on MDA-N, 354 µM; in the assay on M19-MEL melanoma, 283 µM; with RPMI-8226 leukemia, 648 µM. Also, the GI50 was 3.29 µM with MALME-3M melanoma; 37.2 µM and 39.4 µM in the assay with MOLT-4 leukemia; 8.77 µM in the assay on MDA-N; 183 µM with RPMI-8226 leukemia.
In the case of `O=C(Nc1cccc2c1[nH]c1c(-c3ccccc3)nccc12)c1ccccc1[N+](=O)[O-]`, the TGI with A549 NSCLC is above 100 µM; with U251 CNS, above 100 µM; in the assay on DMS 273 small cell lung, above 100 µM; with HOP-92 NSCLC it was 9.05 µM; with KM20L2 colon, above 100 µM; in the assay on MALME-3M melanoma, above 100 µM. Further, the TGI is above 100 µM with MOLT-4 leukemia, 9.7 µM in the assay on NCI-H226 lung and above 100 µM in the assay on RPMI-8226 leukemia.
As for `Ic1cc2c(cc1C1SCCCS1)OCO2`, the TGI in the assay with A549 NSCLC, in the assay on U251 CNS, in the assay with DMS 273 small cell lung, in the assay with HOP-92 NSCLC, with KM20L2 colon and with MALME-3M melanoma was above 100 µM each time. In addition, the TGI in the assay on MOLT-4 leukemia, in the assay on NCI-H226 lung, with M19-MEL melanoma and in the assay with RPMI-8226 leukemia was above 100 µM each time.
For the compound `C=C[C@]1(C)CCC2=C(CCC3C2(C)CCC[C@@]3(C)COC(C)=O)C1` (stereo not given in full), the TGI in the assay with A549 NSCLC was 52.5 µM; in the assay on U251 CNS it was 31.7 µM; in the assay with HOP-92 NSCLC, 35 µM; in the assay on KM20L2 colon, 33.5 µM; in the assay on MALME-3M melanoma it was 62.4 µM; in the assay on MOLT-4 leukemia, 30.3 µM. Besides, the TGI stood at 34.6 µM in the assay on NCI-H226 lung, 34.4 µM with XF 498 CNS, 50.8 µM in the assay on M19-MEL melanoma and 35.6 µM in the assay on RPMI-8226 leukemia.
As for `CCOC(=O)C(C(=S)SC)c1nn2c(=O)cc(C)nc2s1` (stereo not given), the TGI is 37 µM in the assay with A549 NSCLC; 30.6 µM with U251 CNS; 43.9 µM in the assay with HOP-92 NSCLC; 31 µM in the assay with MALME-3M melanoma; 44.2 µM in the assay on MOLT-4 leukemia; 34.6 µM with NCI-H226 lung. The TGI in the assay on MDA-N was determined as 29.8 µM; in the assay on RPMI-8226 leukemia it was 48.7 µM.
Regarding `O=C(O)C12CCCCC1CCCC2` (stereo not given), the TGI with A549 NSCLC, in the assay on U251 CNS, with DMS 273 small cell lung, with HOP-92 NSCLC, in the assay on KM20L2 colon and in the assay with MOLT-4 leukemia was above 100 µM in each case. The TGI in the assay with NCI-H226 lung, in the assay on XF 498 CNS, in the assay on M19-MEL melanoma and in the assay with RPMI-8226 leukemia was above 100 µM each time.
For `CCCCCC/C=C1\CCC(CN2CCOCC2)C1=O` (stereo not given), the TGI in the assay on A549 NSCLC was above 67.3 µM; in the assay on U251 CNS it was 29.3 µM; in the assay with DMS 273 small cell lung, 32.5 µM; in the assay on HOP-92 NSCLC, 34.7 µM; in the assay with KM20L2 colon, 37 µM; in the assay on MALME-3M melanoma, 30.6 µM. Besides, the TGI in the assay with MOLT-4 leukemia was 18.1 µM; in the assay with NCI-H226 lung it was 30 µM; in the assay on XF 498 CNS it was 29.9 µM; with RPMI-8226 leukemia it was above 100 µM.
Consider `CCN(CC)Cc1c(/C=C\c2cc(OC)c(OC)c(OC)c2)ccc(OC)c1O`, for which the TGI with A549 NSCLC was above 100 µM; with U251 CNS, 17.2 µM; with DMS 273 small cell lung it was above 100 µM; with HOP-92 NSCLC, above 100 µM; with KM20L2 colon, 11.9 µM; in the assay with MALME-3M melanoma it was above 100 µM. Further, the TGI in the assay with MOLT-4 leukemia is above 100 µM; in the assay on NCI-H226 lung, 27.3 µM; in the assay with XF 498 CNS, 21.5 µM; in the assay with MDA-N it was 1.59 µM; in the assay on M19-MEL melanoma it was above 100 µM; in the assay with RPMI-8226 leukemia, above 100 µM.
